Source: patent US20180064125A1, “INHIBITION OF PATHOGENIC GROWTH ON PLANT MATERIALS USING LACTIC ACID PRODUCING MICROORGANISMS” (priority 2009, published 2018)

Test system: E. coli O157:H7
Experiment: 12 day shelf-life study of inoculated spinach rinsed with LAB, chlorine or multi-hurdle intervention at 7° C.
Parameters: species or system Escherichia coli O157:H7
Settings: 12 day shelf-life at 7° C., in words, P<0.0001

Question: With `OCl` [chlorine, sodium hypochlorite] as the compound, how does the “Reductions in pathogen populations compared to control populations” value read?
Answer: Significant reductions
